This is an account of results in patent publication US11753407B2, “Compounds for treating spinal muscular atrophy” (PTC Therapeutics, Inc., priority 2012, dated 2023).

Data set [1] concerns SMN2 minigene mRNA (SMN2-A minigene) in HEK293H cells. As to the kind of experiment: SMN2 minigene mRNA splicing RT-qPCR assay in cultured cells. Format: cell-based, human. The conditions noted are these: Homo sapiens, HEK293-H; concentration increasing full length SMN2 mRNA 1.5-fold relative to vehicle-treated cells; HEK293H cells with SMN2-A minigene, 24 hours, 7-point concentration data; read-out: EC1.5x for production of full length SMN2 mRNA. Put shortly: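 HEK293H cells stably carrying the SMN2-A minigene were treated for 24 h at 37 °C with a 7-point, 3.16-fold dilution series of compound. Multiplex RT-qPCR measured exon 7-containing minigene FL mRNA against GAPDH, expressed relative to vehicle by modified ΔΔCt; the EC1.5× is the concentration giving a 1.5-fold increase.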
A general note: Quantitative PCR measures a nucleic acid by following its amplification.

The subject of data set [2] is Smn protein in SMA patient fibroblast cells (GM03813). Briefly: Smn protein assay in cultured cells (SMN HTRF). Format: cell-based, human. The conditions noted are these: SMA patient fibroblast cells, 48 hours; for EC1.5x for Smn protein expression: 7-point concentration curve, SMN HTRF, concentration producing 1.5 times Smn protein vs DMSO vehicle control; for maximum fold (Fold) increase of Smn protein: 7-point concentration data, fold relative to vehicle control. In outline: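 SMA patient fibroblasts (5,000 cells/well, DMEM-10% FBS) were treated for 48 h at 37 °C with a 7-point, 3.16-fold dilution series in triplicate. RIPA lysates were probed by HTRF (anti-SMN d2/kryptate, overnight, room temperature), reading 665/620 nm. EC1.5× is the concentration giving 1.5-fold Smn over DMSO vehicle.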
(In general: TR-FRET usually uses a lanthanide donor and a delayed reading to cut background.)

Take `COc1ccc(-c2cc(=O)n3cc(C4=CCNCC4)ccc3n2)cc1F` [Compound 186, 2-(3-fluoro-4-methoxyphenyl)-7-(1,2,3,6-tetrahydropyridin-4-yl)-4H-pyrido[1,2-a]pyrimidin-4-one]: the melting point is 182 to 184 °C. The EC (1.5-fold increase) in data set [1] was less than 0.1 µM. In addition, in data set [2], the “EC1.5x for Smn protein expression” value is “*** (an EC1.5× between >0.3 μM and ≤1 μM is indicated by three stars (***))”; the “maximum fold (Fold) increase of Smn protein” value (“maximum fold (Fold) increase” below) was “**** (a fold increase between >1.5 and ≤1.65 is indicated by four stars (****))”.
As for `COc1cc(-c2cc(=O)n3cc(N4CCN[C@@H](C)C4)ccc3n2)cc(F)c1F` [Compound 217, 2-(3,4-difluoro-5-methoxyphenyl)-7-[(3S)-3-methylpiperazin-1-yl]-4H-pyrido[1,2-a]pyrimidin-4-one], the melting point was in the range of 160 to 164 °C. Also, the EC (1.5-fold increase) in data set [1] lay in the range of 0.3 to 1 µM. Also, in data set [2], the “maximum fold (Fold) increase” value is “*** (a fold increase between >1.35 and ≤1.5 is indicated by three stars (***))”.
With `CCc1nc(C)cn2nc(-c3cc(=O)n4cc(N5CCN(C6COC6)CC5)ccc4n3)cc12` [Compound 622, 2-(4-ethyl-6-methylpyrazolo[1,5-a]pyrazin-2-yl)-7-[4-(oxetan-3-yl)piperazin-1-yl]-4H-pyrido[1,2-a]pyrimidin-4-one], the melting point is 205 to 208 °C. The EC (1.5-fold increase) in data set [1] fell in the range of 1 to 3 µM. In data set [2], the “EC1.5x for Smn protein expression” value was “** (an EC1.5× between >1 μM and ≤3 μM is indicated by two stars (**))”; the “maximum fold (Fold) increase” value was “**** (a fold increase between >1.5 and ≤1.65 is indicated by four stars (****))”.
`Cc1cn2cc(-c3cc(=O)n4cc(C5CCN(C)CC5)ncc4n3)ccc2n1` [Compound 579, 2-(2-methylimidazo[1,2-a]pyridin-6-yl)-7-(1-methylpiperidin-4-yl)-4H-pyrazino[1,2-a]pyrimidin-4-one]: the melting point is 277 to 280 °C. In addition, in data set [1], the EC (1.5-fold increase) is 0.1 to 0.3 µM. In data set [2], the “EC1.5x for Smn protein expression” value was “*** (an EC1.5× between >0.3 μM and ≤1 μM is indicated by three stars (***))”; the “maximum fold (Fold) increase” value is “***** (a fold increase >1.65 is indicated by five stars (*****))”.
Consider `CCc1nc(C)cn2nc(-c3cc(=O)n4cc(C5CCN(CCF)CC5)ccc4n3)cc12` [Compound 668, 2-(4-ethyl-6-methylpyrazolo[1,5-a]pyrazin-2-yl)-7-[1-(2-fluoroethyl)piperidin-4-yl]-4H-pyrido[1,2-a]pyrimidin-4-one], for which the melting point is 206 to 208 °C. In addition, the EC (1.5-fold increase) in data set [1] was less than 0.1 µM. In data set [2], the “EC1.5x for Smn protein expression” value was “**** (an EC1.5x≤0.3 μM is indicated by four stars (****))” and the “maximum fold (Fold) increase” value is given as “***** (a fold increase >1.65 is indicated by five stars (*****))”.
`COc1ccc(-c2cc(=O)n3cc(N4CCN(C)CC4)cc(C)c3n2)cc1OC` [Compound 344, 2-(3,4-dimethoxyphenyl)-9-methyl-7-(4-methylpiperazin-1-yl)-4H-pyrido[1,2-a]pyrimidin-4-one]: the melting point fell in the range of 191 to 198 °C. For the same molecule, the EC (1.5-fold increase) in data set [1] is 0.1 to 0.3 µM. In addition, in data set [2], the “EC1.5x for Smn protein expression” value was “*** (an EC1.5× between >0.3 μM and ≤1 μM is indicated by three stars (***))”; the “maximum fold (Fold) increase” value is “***** (a fold increase >1.65 is indicated by five stars (*****))”.
The molecule `Cc1nc2ccc(-c3cc(=O)n4cc(C5=CCNCC5)ccc4n3)cc2s1` [Compound 384, 2-(2-methyl-1,3-benzothiazol-6-yl)-7-(1,2,3,6-tetrahydropyridin-4-yl)-4H-pyrido[1,2-a]pyrimidin-4-one] had a melting point of 124 to 126 °C. Moreover, the EC (1.5-fold increase) in data set [1] was less than 0.1 µM. Also, in data set [2], the “EC1.5x for Smn protein expression” value is recorded as “**** (an EC1.5x≤0.3 μM is indicated by four stars (****))” and the “maximum fold (Fold) increase” value is given as “***** (a fold increase >1.65 is indicated by five stars (*****))”.
As for `COc1ccc(-c2cc(=O)n3cc(N(C)[C@@H]4CCN(C)C4)ccc3n2)cc1F` [Cpd 239, 2-(3-fluoro-4-methoxyphenyl)-7-{methyl[(3R)-1-methylpyrrolidin-3-yl]amino}-4H-pyrido[1,2-a]pyrimidin-4-one], the melting point lay in the range of 143 to 149 °C. Besides, in data set [1], the EC (1.5-fold increase) fell in the range of 1 to 3 µM. In data set [2], the “maximum fold (Fold) increase” value is reported as “* (A maximum fold increase of ≤1.2 is indicated by one star (*))”.
With `Cc1cn2cc(-c3cc(=O)n4cc(N5CCC(C)(N)CC5)ccc4n3)cc2c(C)n1` [Compound 731, 7-(4-amino-4-methylpiperidin-1-yl)-2-(1,3-dimethylpyrrolo[1,2-a]pyrazin-7-yl)-4H-pyrido[1,2-a]pyrimidin-4-one], the melting point is 244 to 246 °C. Besides, in data set [1], the EC (1.5-fold increase) was less than 0.1 µM. In data set [2], the “EC1.5x for Smn protein expression” value is listed as “**** (an EC1.5x≤0.3 μM is indicated by four stars (****))” and the “maximum fold (Fold) increase” value is reported as “***** (a fold increase >1.65 is indicated by five stars (*****))”.
`Cc1cc2cc(-c3cc(=O)n4cc(N5CCC(N(C)C)CC5)ccc4n3)oc2c(C)n1` [Compound 528, 7-[4-(dimethylamino)piperidin-1-yl]-2-(5,7-dimethylfuro[2,3-c]pyridin-2-yl)-4H-pyrido[1,2-a]pyrimidin-4-one] displayed a melting point of 200 to 202 °C. Further, in data set [1], the EC (1.5-fold increase) is less than 0.1 µM. For the same molecule, in data set [2], the “EC1.5x for Smn protein expression” value is given as “**** (an EC1.5x≤0.3 μM is indicated by four stars (****))”; the “maximum fold (Fold) increase” value was “**** (a fold increase between >1.5 and ≤1.65 is indicated by four stars (****))”.
`CCc1nc(C)cn2nc(-c3cc(=O)n4cc(C5CCN(CCO)CC5)cc(C)c4n3)cc12` [Compound 793, 2-(4-ethyl-6-methylpyrazolo[1,5-a]pyrazin-2-yl)-7-[1-(2-hydroxyethyl)piperidin-4-yl]-9-methyl-4H-pyrido[1,2-a]pyrimidin-4-one] showed a melting point of 210 to 216 °C. In addition, in data set [1], the EC (1.5-fold increase) was less than 0.1 µM. Moreover, in data set [2], the “EC1.5x for Smn protein expression” value was “**** (an EC1.5x≤0.3 μM is indicated by four stars (****))” and the “maximum fold (Fold) increase” value is on record as “***** (a fold increase >1.65 is indicated by five stars (*****))”.
Molecule `CN(C)c1cccc(-c2cc(=O)n3cc(N4CCNCC4)ccc3n2)c1` [Compound 57, 2-[3-(dimethylamino)phenyl]-7-(piperazin-1-yl)-4H-pyrido[1,2-a]pyrimidin-4-one] had a melting point of 178 to 180 °C. The EC (1.5-fold increase) in data set [1] was in the range of 3 to 30 µM. Also, in data set [2], the “maximum fold (Fold) increase” value is “* (A maximum fold increase of ≤1.2 is indicated by one star (*))”.
`CCN1CCC(c2ccc3nc(-c4ccc(OC)c(OC)c4)cc(=O)n3c2)CC1` [Compound 404, 2-(3,4-dimethoxyphenyl)-7-(1-ethylpiperidin-4-yl)-4H-pyrido[1,2-a]pyrimidin-4-one] came in with a melting point of 155 to 157 °C. Further, the EC (1.5-fold increase) in data set [1] was in the range of 0.3 to 1 µM. Further, in data set [2], the “EC1.5x for Smn protein expression” value was “** (an EC1.5× between >1 μM and ≤3 μM is indicated by two stars (**))”; the “maximum fold (Fold) increase” value is “**** (a fold increase between >1.5 and ≤1.65 is indicated by four stars (****))”.
In turn, `O=c1cc(-c2ccc(OC(F)F)cc2)nc2ccc(N3CCNCC3)cn12` [Compound 59, 2-[4-(difluoromethoxy)phenyl]-7-(piperazin-1-yl)-4H-pyrido[1,2-a]pyrimidin-4-one] registered a melting point of 131 to 133 °C. For the same molecule, in data set [1], the EC (1.5-fold increase) fell in the range of 1 to 3 µM. Besides, in data set [2], the “maximum fold (Fold) increase” value is listed as “* (A maximum fold increase of ≤1.2 is indicated by one star (*))”.
Turning to `CCc1cc(C2=CCN(CC)CC2)cn2c(=O)cc(-c3ccc(OC)c(OC)c3)nc12` [Compound 418, 2-(3,4-dimethoxyphenyl)-9-ethyl-7-(1-ethyl-1,2,3,6-tetrahydropyridin-4-yl)-4H-pyrido[1,2-a]pyrimidin-4-one], the melting point lay within 148 to 153 °C. The EC (1.5-fold increase) in data set [1] is less than 0.1 µM. In data set [2], the “maximum fold (Fold) increase” value was “*** (a fold increase between >1.35 and ≤1.5 is indicated by three stars (***))”.
In turn, `CCc1nc(C)cn2nc(-c3cc(=O)n4cc(C5=CC(C)(C)NC(C)(C)C5)ccc4n3)cc12` [Compound 745, 2-(4-ethyl-6-methylpyrazolo[1,5-a]pyrazin-2-yl)-7-(2,2,6,6-tetramethyl-1,2,3,6-tetrahydropyridin-4-yl)-4H-pyrido[1,2-a]pyrimidin-4-one] yielded a melting point of 255 to 258 °C. In data set [1], the EC (1.5-fold increase) was less than 0.1 µM. Further, in data set [2], the “EC1.5x for Smn protein expression” value was “**** (an EC1.5x≤0.3 μM is indicated by four stars (****))” and the “maximum fold (Fold) increase” value was “***** (a fold increase >1.65 is indicated by five stars (*****))”.
Molecule `Cc1cccc(-c2cc(=O)n3cc(N4CCNCC4)ccc3n2)c1` [Compound 45, 2-(3-methylphenyl)-7-(piperazin-1-yl)-4H-pyrido[1,2-a]pyrimidin-4-one] gave a melting point of 183 to 187 °C. The EC (1.5-fold increase) in data set [1] was in the range of 3 to 30 µM. Moreover, the “maximum fold (Fold) increase” value in data set [2] is “** (a fold increase between >1.2 and ≤1.35 is indicated by two stars (**))”.

The melting point is the temperature of the solid-liquid transition.
